Test system: PC3 cells
Test: Cell proliferation assay (MTS)
Assay type: cell-based, human
Details: 96 h
Method: Cells were seeded in 96-well plates and treated with exemplary compound or control as indicated. At desired time points culture medium was supplemented with […] MTS (Promega) and […] phenazine methosulfate (Sigma) and incubated at 37° C. Mitochondrial reduction of MTS to the formazan derivative was monitored by measuring the medium's absorbance at 490 nm using a Wallac Victor 2 plate reader (Perkin-Elmer Life Sciences). Data analysis and statistics was performed using Prism 7.0 (GraphPad).

Cc1ncsc1-c1ccc(CNC(=O)[C@@H]2C[C@@H](O)CN2C(=O)[C@@H](NC(=O)CCOCCOc2ccc(Nc3ncc(C(F)(F)F)c(NCc4cccc(N(C)S(C)(=O)=O)c4)n3)cc2)C(C)(C)C)cc1 [Compound 102, (2S,4R)-1-((S)-3,3-dimethyl-2-(3-(2-(4-((4-((3-(N-methylmethylsulfonamido)benzyl)amino)-5-(trifluoromethyl)pyrimidin-2-yl)amino)phenoxy)ethoxy)propanamido)butanoyl)-4-hydroxy-N-(4-(4-methylthiazol-5-yl)benzyl)pyrrolidine-2-carboxamide]
cell viability or proliferation (in words): do not affect cell viability or proliferation within four days

Reference: patent US20200038513A1, “MODULATORS OF FAK PROTEOLYSIS AND ASSOCIATED METHODS OF USE” (ARVINAS OPERATIONS, INC., priority 2018, published 2020)
